Data as given in paper PMC8355244, “A fragment-based approach identifies an allosteric pocket that impacts malate dehydrogenase activity” (Communications Biology, 2021).
Several values for one entry are separate records, joined by “and”; a condition that tells them apart may be missing. Equal entries are not always repeated. Where two headings read alike, the source gives them in different places.

Legend:
WT PfMDH = biological target: T1, WT PfMDH (Plasmodium falciparum, UniProt Q6VVP7); test: 4PA dose-response inhibition of PfMDH; assay type: biochemical; conditions: for Slope / Response (Delta Abs[340 nm]/min): replicates
T1 construct: The full-length WT PfMDH gene was cloned into pETM-13; made in house; host or cells: E. coli Rosetta 2 (DE3) pLysS
T1 sequence (Q6VVP7 entry or part of it): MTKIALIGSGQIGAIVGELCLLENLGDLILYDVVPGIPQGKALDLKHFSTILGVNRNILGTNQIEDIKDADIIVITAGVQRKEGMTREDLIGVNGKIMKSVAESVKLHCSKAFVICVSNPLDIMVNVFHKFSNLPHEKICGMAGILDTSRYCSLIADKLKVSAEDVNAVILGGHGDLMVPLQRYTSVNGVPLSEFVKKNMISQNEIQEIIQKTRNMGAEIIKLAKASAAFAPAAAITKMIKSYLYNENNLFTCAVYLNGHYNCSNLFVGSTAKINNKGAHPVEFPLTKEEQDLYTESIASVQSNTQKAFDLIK
Experimental: (§1) The oxidation of malate to oxaloacetate was assayed spectrophotometrically in flat-bottomed Corning 96-well microplates in a total volume of 250.0 µl in 50 mM glycine buffer pH 10.2[24] with an additional 400 mM NaCl for protein stability. The increase of absorbance at 340 nm was recorded in kinetic mode using a Tecan Spark multimode microplate reader at 298 K. A mastermix of 50 mM NAD+ and 44 μM PfMDH was used for both the screening and kinetics experiments. The final concentration of protein and cofactor were […], respectively. Positive control groups were set (absence of compound) in the same plate as the treated group. The absorbance from the background noise was subtracted from the data and then a linear regression model was employed in order to get the line slope from the first 5 min of the reaction. The percentage of enzymatic activity has been calculated as described by Eq. (1)1 enzymeactivity(%)=slopetreated/slopepositivecontrol*100
While the fragment initially discovered was 4-(3,4-difluorophenyl) thiazol-2-amine, we decided to perform enzymatic and kinetic assays using a similar substructure 4-phenylthiazol-2-amine. 2× fold dilutions from a 200 mM stock solution of the compound in 100% DMSO was prepared for dose–response experiments. 3.3 µL of compound (DMSO in the case of positive control) were mixed with 233.9 µL mastermix of WT PfMDH previously incubated with 3 mM NAD + using a multichannel pipette. The final conditions tested were a maximum of 2.5 mM of 4PA at 1.32% (v/v) final DMSO concentration. The microplate was incubated for 15 min at 25.35 °C and the reaction started with the addition of 13.0 µL of 5 mM L-malate.

PfMDH = biological target: T2, PfMDH (Plasmodium falciparum, UniProt Q6VVP7); test: Kinetics experiment with varying L-malate, substrate inhibition model; assay type: biochemical; set-up: unit not given here; conditions: malate 5 mM, replicates
T2 construct: The full-length WT PfMDH gene was cloned into pETM-13; made in house; host or cells: E. coli Rosetta 2 (DE3) pLysS
T2 sequence (Q6VVP7 entry or part of it): as above
Experimental: as §1
Kinetics experiments were performed by mixing 1.3 µL of compound stock solutions from 12.5 and 25 mM of 4PA in 100% DMSO with 223.8 µL mastermix of PfMDH previously incubated in ice with 3 mM NAD+ for 30 min. […] Kinetic constants Km (mM) and Vmax (U * mg^−^1) and Ki (mM) were quantified with GraphPad Prism version 8.0 according to the substrate inhibition Eq. (2)[52].2 Y=Vmax*X/(Km+X^*(1+X/Ki))

[1] = Precipitation / turbidity of compound in assay buffer (600 nm); assay type: physicochemical; conditions: aqueous assay buffer
Experimental: 1.3 µL of derivatives of 4-phenylthiazol-2-amine in 100% DMSO were mixed with 237.7 µL of a mastermix of WT PfMDH previously incubated with NAD+. The final compound concentration used in this screening was 500 µM in the presence of 0.5% (v/v) DMSO. The microplate was sealed with silver foil for 1-h incubation at 25–35 °C. Finally, reactions in both the samples and control wells were started upon the addition of 13.0 µL of 5 mM malate). At the end of the experiments, the reaction of the plate was spectrophotometrically assayed at 600 nm in order to identify turbidity due to the low solubility of the compound. All measurements were performed in duplicate.

What does the source list for Nc1nc(-c2ccccc2)cs1 [4PA, 4-phenylthiazol-2-amine]?
IC50 (WT PfMDH; 5 mM L-malate, 3 mM NAD+, pH 10.2, read-out: IC50): 1120 ± 30 µM; Slope (WT PfMDH; Dose 1e-6 M): 0.04587 and 0.04675 and 0.04799; Slope (WT PfMDH; Dose 0.000237161 M): 0.03425 and 0.02991 and 0.02497; Slope (WT PfMDH; Dose 0.000332026 M): 0.03311 and 0.03278 and 0.02964; Slope (WT PfMDH; Dose 0.000464836 M): 0.03179 and 0.02952 and 0.02569; Slope (WT PfMDH; Dose 0.000650771 M): 0.0287 and 0.02683 and 0.02888; Slope (WT PfMDH; Dose 0.000911079 M): 0.02984 and 0.02623 and 0.02457; Slope (WT PfMDH; Dose 0.00127551 M): 0.01897 and 0.02591 and 0.01942; Slope (WT PfMDH; Dose 0.00178571 M): 0.01091 and 0.01205 and 0.0179; Slope (WT PfMDH; Dose 0.0025 M): 0.01337 and 0.01172 and 0.009871; Response (Delta Abs[340 nm]/min) (WT PfMDH; Dose 1.00E-06 M): 4.59E-02 Delta Abs[340 nm]/min and 4.67E-02 Delta Abs[340 nm]/min and 4.80E-02 Delta Abs[340 nm]/min; Response (Delta Abs[340 nm]/min) (WT PfMDH; Dose 1.28E-03 M): 1.90E-02 Delta Abs[340 nm]/min and 2.59E-02 Delta Abs[340 nm]/min and 1.94E-02 Delta Abs[340 nm]/min; Response (Delta Abs[340 nm]/min) (WT PfMDH; Dose 1.79E-03 M): 1.09E-02 Delta Abs[340 nm]/min and 1.20E-02 Delta Abs[340 nm]/min and 1.79E-02 Delta Abs[340 nm]/min; Response (Delta Abs[340 nm]/min) (WT PfMDH; Dose 2.37E-04 M): 3.43E-02 Delta Abs[340 nm]/min and 2.99E-02 Delta Abs[340 nm]/min and 2.50E-02 Delta Abs[340 nm]/min; Response (Delta Abs[340 nm]/min) (WT PfMDH; Dose 2.50E-03 M): 1.34E-02 Delta Abs[340 nm]/min and 1.17E-02 Delta Abs[340 nm]/min and 9.87E-03 Delta Abs[340 nm]/min; Response (Delta Abs[340 nm]/min) (WT PfMDH; Dose 3.32E-04 M): 3.31E-02 Delta Abs[340 nm]/min and 3.28E-02 Delta Abs[340 nm]/min and 2.96E-02 Delta Abs[340 nm]/min; Response (Delta Abs[340 nm]/min) (WT PfMDH; Dose 4.65E-04 M): 3.18E-02 Delta Abs[340 nm]/min and 2.95E-02 Delta Abs[340 nm]/min and 2.57E-02 Delta Abs[340 nm]/min; Response (Delta Abs[340 nm]/min) (WT PfMDH; Dose 6.51E-04 M): 2.87E-02 Delta Abs[340 nm]/min and 2.68E-02 Delta Abs[340 nm]/min and 2.89E-02 Delta Abs[340 nm]/min; Response (Delta Abs[340 nm]/min) (WT PfMDH; Dose 9.11E-04 M): 2.98E-02 Delta Abs[340 nm]/min and 2.62E-02 Delta Abs[340 nm]/min and 2.46E-02 Delta Abs[340 nm]/min; LogIC50 (best-fit value) (WT PfMDH; log(inhibitor) vs. normalized response, variable slope): -2.934 and -2.922; IC50 (WT PfMDH; log(inhibitor) vs. normalized response, variable slope, read-out: IC50 (best-fit value)): 1160 µM and 1200 µM; 4PA kinetics raw data (rate) (PfMDH; PfMDH + 63 uM): 0.0233 and 0.02526 and 0.02238; 4PA kinetics raw data (rate) (PfMDH; PfMDH + 125 uM): 0.01868 and 0.01853 and 0.02184; solubility (in words) [1]: slightly more soluble than 4DT
